US20210145801A1, “THERAPY FOR PROTEIN MISFOLDING DISEASE” (WREN THERAPEUTICS LIMITED, priority 2018, published 2021)
Entries after “also recorded” stand apart in the source; their conditions may differ.

Key:
Format in all cases: in vivo, C. elegans
[1] = molecular target: T1, Aβ plaques in AD worms (GMC101) (Homo sapiens, UniProt P05067); assay: NIAD-4 staining of plaques load in living AD worms
T1 construct: unc-54p::A-beta-1-42 expresses full-length human Aβ42 peptide in body wall muscle cells; expressed in transfected cells; host or cells: C. elegans strain GMC101 (dvIs100), body wall muscle cells
T1 sequence (P05067 672-713 limits assumed): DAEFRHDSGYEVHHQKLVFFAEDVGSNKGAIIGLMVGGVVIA
Description: GMC101 dvIs100 [unc-54p::A-beta-1-42::unc-54 3′UTR+mtl-2p::GFP]. mtl-2p::GFP produces constitutive expression of GFP in intestinal cells. unc-54p::A-beta-1-42 expresses full-length human Aβ42 peptide in body wall muscle cells that aggregates in vivo. Shifting L4 or young adult animals from 20° to 24° C. causes paralysis (G. McColl et al., Utility of an improved model of amyloid-beta (Aβ1-42) toxicity in Caenorhabditis elegans for drug screening for Alzheimer's disease. Mol Neurodegener. 7, 57 (2012));
Briefly, Netoglitazone stocks (5 mM in 100% DMSO) were used at an appropriate concentration to seed 9-cm NGM plates. Plates were then placed in a laminar flow hood at room temperature (22° C.) for up to 4 hours to dry. […]
Plaques staining was carried out as previously described (J. Habchi et al. (2016); M. Perni et al., A natural product inhibits the initiation of α-synuclein aggregation & suppresses its toxicity. Proc. Natl. Acad. Sci. U.S.A. 114, E1009-E1017 (2017)). […] Images were captured with a Zeiss Axio Observer D1 fluorescence microscope (Carl Zeiss Microscopy GmbH) with a 20× objective and a 49004 ET-CY3/TRITC filter (Chroma Technology Corp). Fluorescence intensity was calculated using ImageJ software (National Institutes of Health) and then normalized as the corrected total cell fluorescence. […] Statistical significance was determined using t tests.

[2] = test system: ROS production in AD worms; assay: ROS production (ROS-Glo H2O2 assay) in AD worms; conditions: 5 μM administered at L4; D5 of adulthood
Description: ROS-Glo™ H2O2 cell kit assay was used (Promega, Fitchburg, Wis., USA) and adapted for C. elegans studies. The ROS-Glo™ H2O2 Assay is a bioluminescent assay that measures the level of H2O2, a reactive oxygen species (ROS), directly in cell culture or tissue or in defined enzyme reactions. A derivatized luciferin substrate is incubated with sample and reacts directly with H2O2 to generate a luciferin precursor. Worms treated with 5 μM Netoglitazone in 1% DMSO or 1% DMSO only were washed using M9 buffer out the NGM plates. The buffer was then changed 3 times to remove the excess bacteria. Worm pellets were then divided in three wells and 80 μl of worm pellet (around 200 worms/well) was incubated for 6 h at RT with 20 μl of a ROS Substrate Solution (Promega, Fitchburg, Wis., USA); mild shaking at 300 rpm was used to avoid worm sedimentation; afterwards, worms were incubated for ca. 20 min with 100 μl of the detection solution; luminescence was then measured with a Clariostar (BMG Labtech, Aylesbury, UK).

[3] = test system: Aβ1-42Neur worms (CL2355); assay: Chemotaxis assay in Aβ1-42Neur worms; conditions: 5 μM; 5 days at 24° C.; day 6 of adulthood
Description: Chemotaxis measurements were carried out as previously described (O. Margie, C. Palmer, I. Chin-Sang, C. elegans Chemotaxis Assay. J Vis Exp, e50069 (2013)) and as illustrated in FIG. 6C. Briefly, adult synchronized transgenic C. elegans CL2355 worms and wild-type healthy worms were incubated with or without 5 μM Netoglitazone for 5 days 24° C. At day 6 of adulthood the worms were then collected, washed with M9 buffer three times, and assayed in 9 cm screening plates (1.9% agar, 1 mM CaCl2), 1 mM MgSO4, and 25 mM phosphate buffer, pH 6.0) seeded with 50 μl of a 10× culture of Op50 Bacteria or sterile water, as attractant or test conditions, respectively and in combination with 1 μl of 1M Levamisole. Ca. 200 worms were placed in the central quadrant of the plate and incubated at 24° C. for 8 h, after which the chemotaxis index (CI) was scored. The CI was defined as follows (O. Margie et al (2013)):
(number of worms at the attractant locations−number of worms at the control locations)/total number of worms on the plate
Worms that were remaining in the central quadrant were excluded.

Q: What does the source list for O=C1NC(=O)C(Cc2ccc3cc(OCc4ccccc4F)ccc3c2)S1 (stereo not shown) [Netoglitazone]?
A: Plaques load in AD worms (NIAD-4 fluorescence) ([1]; 0.5 μM administered at L4, day 6 of adulthood): significantly decrease the plaques load; also recorded: Decrease in the plaques load in AD worms; Plaques load in AD worms after late administration ([1]; administered at D3 of adulthood, read at D6): significant decrease of the plaques load at D6; also recorded: decreases the plaques load at D6 of adulthood; ROS production / levels of oxidative species in AD worms [2]: significantly decreased the levels of oxidative species; also recorded: restores the ROS production in AD worms to normal levels; Chemotaxis index of Aβ1-42Neur worms [3]: chemotaxis index was significantly improved; also recorded: significantly improves the (A) chemotaxis index
